Measurements reported in ChEMBL document CHEMBL1201862, “PubChem BioAssay data set” (2004).
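Tested at 5 concentrations; 48 h exposure; 96-well plates; endpoints linearly interpolated, else capped at highest concentration. The concentration for 50% growth inhibition is given as GI50.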 Activity calls are given as the source filed them. Cut-off read from the data, not from the text of the source: active = GI50 up to about 1.1 µM and inactive = higher.

How the values were obtained:
Experiment in all cases: DTP human tumour cell line panel, 48 h
HT-29 = test system: HT-29
IGROV-1 = test system: IGROV-1
MDA-MB-231 = test system: MDA-MB-231
MDA-MB-435 = test system: MDA-MB-435
MDA-N = test system: MDA-N
NCI-H23 = test system: NCI-H23
NCI/ADR-RES = test system: NCI/ADR-RES
OVCAR-8 = test system: OVCAR-8
PC-3 = test system: PC-3
RXF 393 = test system: RXF 393
SF-268 = test system: SF-268
SF-295 = test system: SF-295
SK-MEL-2 = test system: SK-MEL-2
SK-MEL-5 = test system: SK-MEL-5
SN12C = test system: SN12C
SNB-75 = test system: SNB-75
LOX IMVI = test system: LOX IMVI
NCI-H460 = test system: NCI-H460
UO-31 = test system: UO-31
RPMI-8226 = test system: RPMI-8226

Measured: GI50

Cc1n[nH]c(=O)n1N1C(=O)CCCC1=O
inactive: HT-29 > 100 µM | IGROV-1 > 100 µM | MDA-MB-231 > 100 µM | MDA-MB-435 > 100 µM | MDA-N > 100 µM | NCI-H23 > 100 µM | NCI/ADR-RES > 100 µM | OVCAR-8 > 100 µM | PC-3 > 100 µM | RXF 393 > 100 µM | SF-268 > 100 µM | SF-295 > 100 µM | SK-MEL-2 > 100 µM | SK-MEL-5 > 100 µM | SN12C > 100 µM | SNB-75 > 100 µM

CC(C)Oc1c(C2(c3ccccc3O)SCCCS2)c(=O)c1=O
inactive: HT-29 > 100 µM | IGROV-1 30.3 µM | LOX IMVI > 100 µM | MDA-MB-231 69.2 µM | MDA-MB-435 > 100 µM | MDA-N > 100 µM | NCI-H23 89.3 µM | NCI-H460 > 100 µM | NCI/ADR-RES > 100 µM | OVCAR-8 > 100 µM | PC-3 > 100 µM | RXF 393 75.9 µM | SF-268 > 100 µM | SF-295 > 100 µM | SK-MEL-2 > 100 µM | SK-MEL-5 > 100 µM | SN12C > 100 µM | SNB-75 36.1 µM | UO-31 47.9 µM

COc1ccc(-c2[nH]c3c4c(nc5c(c24)C(=O)CC(C)(C)C5)CC(C)(C)C3)cc1
inactive: HT-29 43.9 µM | LOX IMVI 68.7 µM | MDA-MB-231 50.9 µM | MDA-MB-435 50.2 µM | MDA-N 47.4 µM | NCI-H23 76.2 µM | NCI-H460 72.3 µM | NCI/ADR-RES 48.8 µM | OVCAR-8 52.6 µM | PC-3 24.3 µM | RXF 393 73.5 µM | SF-268 95.5 µM | SF-295 57.4 µM | SK-MEL-2 39.7 µM | SK-MEL-5 63.1 µM | SN12C 38.9 µM | SNB-75 34.4 µM | UO-31 61.1 µM

CC1(C)CC[C@]2(C)CC=C3[C@]4(C)CC[C@H]5C(C)(C)C(=O)CC[C@]5(C)[C@H]4CC[C@@]3(C)[C@H]2C1
inactive: HT-29 > 100 µM | IGROV-1 > 100 µM | LOX IMVI > 100 µM | MDA-MB-231 > 100 µM | MDA-MB-435 > 100 µM | MDA-N > 100 µM | NCI-H23 > 100 µM | NCI/ADR-RES > 100 µM | OVCAR-8 > 100 µM | PC-3 > 100 µM | RPMI-8226 > 100 µM | RXF 393 > 100 µM | SF-268 > 100 µM | SF-295 > 100 µM | SK-MEL-2 > 100 µM | SK-MEL-5 > 100 µM | SN12C > 100 µM | UO-31 > 100 µM

CC(C)c1cc(C(F)(F)F)nc(NNc2nc(C(C)C)cc(C(F)(F)F)n2)n1
inactive: HT-29 > 100 µM | IGROV-1 > 100 µM | MDA-MB-231 65.3 µM | MDA-MB-435 > 100 µM | MDA-N > 100 µM | NCI-H23 53.8 µM | NCI-H460 62.8 µM | NCI/ADR-RES > 100 µM | OVCAR-8 > 100 µM | PC-3 > 100 µM | RPMI-8226 > 100 µM | RXF 393 32.4 µM | SF-268 > 100 µM | SF-295 37.1 µM | SK-MEL-2 > 100 µM | SK-MEL-5 > 100 µM | SN12C > 100 µM | SNB-75 24.2 µM | UO-31 > 100 µM

CCOC(=O)c1c(C)noc1/N=N/N(CCO)CCO
inactive: HT-29 33.4 µM | IGROV-1 36.6 µM | LOX IMVI 32.4 µM | MDA-MB-231 38.9 µM | MDA-MB-435 34 µM | MDA-N 27.7 µM | NCI-H23 30.3 µM | NCI-H460 27.9 µM | NCI/ADR-RES 35.4 µM | OVCAR-8 38.3 µM | PC-3 31.8 µM | RXF 393 15.1 µM | SF-268 54.3 µM | SF-295 23.7 µM | SK-MEL-5 15.7 µM | SN12C 37.5 µM | SNB-75 10.2 µM | UO-31 25.5 µM
